According to US7368437B1, “Bicyclic heterocycles, processes for their preparation and their use as herbicides and pharmaceutical agents” (Bayer CropScience AG, priority 1999, dated 2008):

Legend:
Xanthomonas oryzae = conditions: stated in the literature; cited from earlier work

Compound | melting point | action against Xanthomonas oryzae (Xanthomonas oryzae)
CN(C)c1ncc2nnc([C@@H]3O[C@H](COC(=O)c4ccccc4)[C@@H](OC(=O)c4ccccc4)[C@H]3OC(=O)c3ccccc3)n2n1 [If, 6-Dimethylamino-3-(2′,3′,5′-tri-O-benzoyl-β-ribofuranosyl)-1,2,4-triazolo-[3,4-f]-1,2,4-triazine] | 79 to 80 °C | 
OC[C@H]1O[C@@H](c2n[nH]c3cncnc23)[C@H](O)[C@@H]1O [Ib, 3-β-D-Ribofuranosyl-1H-pyrazolo[4,3-d]pyrimidine] | 227 to 228 °C | fungicidal action
CN(C)c1ncc2nnc([C@@H]3O[C@H](CO)[C@@H](O)[C@H]3O)n2n1 [Ig, 6-Dimethylamino-3-β-ribofuranosyl-1,2,4-triazolo[3,4-f]-1,2,4-triazine] | 171 to 173 °C | 
